Results on 1 compound are retold here after paper PMC10138554, “Insights into the Microbicidal, Antibiofilm, Antioxidant and Toxicity Profile of New O-Aryl-Carbamoyl-Oxymino-Fluorene Derivatives” (International Journal of Molecular Sciences, 2023).

This data set can be described thus: Toxicity on the Artemia franciscana Kellog crustacean species (lethality of nauplii). The settings on record: Artemia franciscana Kellog (brine shrimp nauplii), in vivo, other: nauplii placed in contact with the test suspensions, four-parameter logistic model. Type of data set: in vivo. Here is the method: The oocysts (Great Salt Lake, USA) provided by S.K. Trading were grown on artificial seawater medium (Coral Marine, Grotech), dissolved in distilled water with a few minutes of sonication, at 30 g/L concentration. The test was carried out in a 24-well plate, using three replicates. Because of their low solubility, the compounds 1a–d were suspended in the culture medium using sodium alginate (0.045%) (also used a negative control), the testing being carried out at the solubility limit. The concentrations 100, 50, 25, 12.5 and 6.2 μg/mL used for each substance were obtained by successive dilutions starting from the initial suspension. Between 10 and 15 nauplii per well were collected and placed in contact with the test suspensions (1.5 mL/well). All nauplii, dead or alive, were counted and recorded within 24 h of being placed in contact with the tested suspensions. The non-linear modeling of the concentration-lethality relationship was achieved through a four-parameter logistics model (4PL), implemented in several robust variants for estimating parameters in the R package “dr4pl” [78].

Values after ≈ are worked out from the molar mass of the structure shown.

As for `O=C(Nc1ccc(Cl)c(Cl)c1)ON=C1c2ccccc2-c2ccccc21` [Compound 1d, 9-((3,4-dichloro-phenyl)carbamoyloxymino)fluoren], the LC50 (as a rule, the concentration lethal to half of the exposed cells or organisms) at 24 h is 14.6 µg/mL (≈ 38.2 µM).
